Test results: EP1506969B1, “Compounds with growth hormone releasing properties” (Helsinn Therapeutics (U.S.), Inc., priority 1998, dated 2010)
Square brackets hold non-standard residues; d marks the D form. Peptide text beside a SMILES is read from it. d2Nal = N[C@H](Cc1ccc2ccccc2c1)C(=O)O

Assays:
carboxypeptidase Y and B = assay: Metabolic stability in carboxypeptidase mix (ESMS, selected ion monitoring); conditions: stability: decrease in SIM signal after 24 h in degradation solution; carboxypeptidase Y and B in 50 mM ammoniumacetate pH 4.5, 37°C
Procedure: Compounds of formula I may be evaluated for their metabolic stability using the procedure described below:
(§1) Compounds is dissolved at a concentration of 1 mg/ml in water. 25 ml of this solution is added to 175 ml of the respective enzyme-solution (resulting in an enzyme:substrate ratio (w/w) of approximately 1:5). The solution is left at 37°C overnight. 10 ml of the various degradation solutions is analyzed against a corresponding zero-sample using flow injection electrospray mass spectrometry (ESMS) with selected ion monitoring of the molecular ion. If the signal has decreased more than 20% compared to the zero-sample, the remainder of the solution is analyzed by HPLC and mass spectrometry in order to identify the extent and site(s) of degradation precisely.
(§2) Enzymes (trypsin, chymotrypsin, elastase aminopeptidase M and carboxypeptidase Y and B) were all purchased from Boehringer Mannheim GmbH (Mannheim, Germany)
Carboxypeptidase mix: carboxypeptidase Y and B in 50 mM ammoniumacetate pH 4.5 (all concentrations 0.025 mg/ml).
(§3) Mass spectrometric analysis was performed using two different mass spectrometers. […]
(§4) Quantification of the compounds (before and after degradation) was done on the API III instrument using single ion monitoring of the molecular ion in question with flow injection of the analyte. […]

[1] = test system: trypsin, chymotrypsin and elastase; assay: Metabolic stability in pancreatic enzyme mix (ESMS, selected ion monitoring); conditions: stability: decrease in SIM signal after 24 h in degradation solution, chymotrypsin and elastase in 100 mM ammoniumbicarbonate pH 8.0, 37°C
Procedure: as §1, §2
Pancreatic enzyme mix: trypsin, chymotrypsin and elastase in 100 mM ammoniumbicarbonate pH 8.0 (all concentrations 0.025 mg/ml).
as §3, §4

Compound | Carboxy-peptidase mix (carboxypeptidase Y and B) | Pan. enzyme mix [1]
C[C@H](NC(=O)[C@@H](Cc1ccc2ccccc2c1)NC(=O)[C@@H](C)N)C(=O)N[C@@H](Cc1c[nH]c2ccccc12)C(=O)N[C@H](Cc1ccccc1)C(=O)N[C@@H](CCCCN)C(N)=O [GHRP-2] (H-[dA][d2Nal]AW[dF]K-NH2) | - (Unstable (more than 20% decrease in SIM signal after 24 h in degradation solution)) | - (Unstable (more than 20% decrease in SIM signal after 24 h in degradation solution))
C[C@H](NC(=O)[C@@H](Cc1c[nH]c2ccccc12)NC(=O)[C@@H](N)Cc1c[nH]cn1)C(=O)N[C@@H](Cc1c[nH]c2ccccc12)C(=O)N[C@H](Cc1ccccc1)C(=O)N[C@@H](CCCCN)C(N)=O [GHRP-6] (H-H[dW]AW[dF]K-NH2) | - (Unstable (more than 20% decrease in SIM signal after 24 h in degradation solution)) | - (Unstable (more than 20% decrease in SIM signal after 24 h in degradation solution))
